Tests used:
AaenPBP1 [1] = target: T1, AaenPBP1 (Agriphila aeneociliella, UniProt Z9SOT8HEE8); test: competitive fluorescence binding (1-NPN displacement)
T1 construct: mature protein without signal peptide (1-23 of 166 aa ORF); pET-15b with SUMO tag, His-tag Ni-NTA purification, E. coli BL21(DE3)
T1 sequence (Z9SOT8HEE8 24-166): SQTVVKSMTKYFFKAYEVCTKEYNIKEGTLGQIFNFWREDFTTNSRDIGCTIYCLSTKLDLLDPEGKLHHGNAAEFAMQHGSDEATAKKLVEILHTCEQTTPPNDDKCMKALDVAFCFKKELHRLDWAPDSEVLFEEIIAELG

AaenPBP1 [2] = target: T1, AaenPBP1; test: fluorescence titration, Scatchard analysis; type: binding

SMILES | Ki (AaenPBP1 [1]) [µM] | Kd (AaenPBP1 [2]) [µM]
CCCCCC/C=C\CCCCCCCCOC(C)=O [(Z)-9-Hexadecenyl acetate] | 1.72 | 
CCCCCCCCC=O [1-Nonanal] | 7.04 | 
c1ccc(Nc2cccc3ccccc23)cc1 [1-NPN] |  | 4.6
